Species on record: Rattus norvegicus
Test: DrugMatrix - Regimen: Daily Repeat
Type: toxicity, organism-based, Sprague-Dawley
Parameters: regimen Daily Repeat, gender Male, age 6-8 weeks
Details: in vivo, po, route oral GAVAGE, […]; for ABSOLUTE BASOPHIL / ABSOLUTE EOSINOPHIL / ABSOLUTE LYMPHOCYTE / ABSOLUTE MONOCYTE / ABSOLUTE SEGMENTED NEUTROPHIL / BASOPHIL / EOSINOPHIL / ERYTHROCYTE COUNT / HEMATOCRIT / HEMOGLOBIN / LEUKOCYTE COUNT / LYMPHOCYTE / MEAN CORPUSCULAR HEMOGLOBIN / MEAN CORPUSCULAR HEMOGLOBIN CONCENTRATION / MEAN CORPUSCULAR VOLUME / MONOCYTE / NEUTROPHIL / NUCLEATED RED BLOOD CELLS / PLATELET COUNT: tissue Blood; for ALANINE AMINOTRANSFERASE / ALKALINE PHOSPHATASE / ASPARTATE AMINOTRANSFERASE / BLOOD UREA NITROGEN / CARBON DIOXIDE / CHLORIDE / CHOLESTEROL / CREATINE PHOSPHOKINASE / CREATININE / GLUCOSE / LACTATE DEHYDROGENASE / LIPASE / PHOSPHORUS / POTASSIUM / SODIUM / TOTAL BILIRUBIN / TOTAL PROTEIN / URIC ACID: tissue Plasma
[1] = 0 mg/kg, 72 h, dose level Control, time 3 day
[2] = 0 mg/kg, dose level Control, time 7 day
[3] = 100 mg/kg, 72 h, dose level Low, time 3 day

Structure (SMILES): Cc1ccc(C)c(OCCCC(C)(C)C(=O)O)c1 [GEMFIBROZIL]
- ABSOLUTE BASOPHIL [1]: 0 CELLS/uL
- ABSOLUTE EOSINOPHIL [1]: 37.33 CELLS/uL
- ABSOLUTE LYMPHOCYTE [1]: 6295.33 CELLS/uL
- ABSOLUTE MONOCYTE [1]: 122.17 CELLS/uL
- ABSOLUTE SEGMENTED NEUTROPHIL [1]: 861.83 CELLS/uL
- BASOPHIL [1]: 0%
- EOSINOPHIL [1]: 0.5%
- ERYTHROCYTE COUNT [1]: 5.2 x10E6/uL
- HEMATOCRIT [1]: 32.58%
- HEMOGLOBIN [1]: 12.95 G/DL
- LEUKOCYTE COUNT [1]: 7.32 x10E3/uL
- LYMPHOCYTE [1]: 86%
- MEAN CORPUSCULAR HEMOGLOBIN [1]: 24.93 pg
- MEAN CORPUSCULAR HEMOGLOBIN CONCENTRATION [1]: 39.77 G/DL
- MEAN CORPUSCULAR VOLUME [1]: 62.65 fL
- MONOCYTE [1]: 1.67%
- NEUTROPHIL [1]: 11.83%
- NUCLEATED RED BLOOD CELLS [1]: 0 /100WBC
- PLATELET COUNT [1]: 1029 x10E3/uL
- ALANINE AMINOTRANSFERASE [1]: 63.67 u/L
- ALKALINE PHOSPHATASE [1]: 329.83 u/L
- ASPARTATE AMINOTRANSFERASE [1]: 77.67 u/L
- BLOOD UREA NITROGEN [1]: 18 mg/dL
- CARBON DIOXIDE [1]: 29.67 mmol/L
- CHLORIDE [1]: 102.67 MEQ/L
- CHOLESTEROL [1]: 64.5 mg/dL
- CREATINE PHOSPHOKINASE [1]: 178.67 u/L
- CREATININE [1]: 0.18 mg/dL
- GLUCOSE [1]: 163.83 mg/dL
- LACTATE DEHYDROGENASE [1]: 75.83 u/L
- LIPASE [1]: 10 u/L
- PHOSPHORUS [1]: 8.28 mg/dL
- POTASSIUM [1]: 4.79 MEQ/L
- SODIUM [1]: 142.22 MEQ/L
- TOTAL BILIRUBIN [1]: 0.22 mg/dL
- TOTAL PROTEIN [1]: 5.78 G/DL
- URIC ACID [1]: 0.87 mg/dL
- ABSOLUTE BASOPHIL [2]: 0 CELLS/uL
- ABSOLUTE EOSINOPHIL [2]: 19 CELLS/uL
- ABSOLUTE LYMPHOCYTE [2]: 7803.5 CELLS/uL
- ABSOLUTE MONOCYTE [2]: 117.83 CELLS/uL
- ABSOLUTE SEGMENTED NEUTROPHIL [2]: 1093 CELLS/uL
- BASOPHIL [2]: 0%
- EOSINOPHIL [2]: 0.17%
- ERYTHROCYTE COUNT [2]: 5.84 x10E6/uL
- HEMATOCRIT [2]: 35.75%
- HEMOGLOBIN [2]: 13.87 G/DL
- LEUKOCYTE COUNT [2]: 9.03 x10E3/uL
- LYMPHOCYTE [2]: 87.17%
- MEAN CORPUSCULAR HEMOGLOBIN [2]: 23.78 pg
- MEAN CORPUSCULAR HEMOGLOBIN CONCENTRATION [2]: 38.8 G/DL
- MEAN CORPUSCULAR VOLUME [2]: 61.25 fL
- MONOCYTE [2]: 1.17%
- NEUTROPHIL [2]: 11.5%
- NUCLEATED RED BLOOD CELLS [2]: 0 /100WBC
- PLATELET COUNT [2]: 1098.67 x10E3/uL
- ALANINE AMINOTRANSFERASE [2]: 66 u/L
- ALKALINE PHOSPHATASE [2]: 291.83 u/L
- ASPARTATE AMINOTRANSFERASE [2]: 80.5 u/L
- BLOOD UREA NITROGEN [2]: 15.67 mg/dL
- CARBON DIOXIDE [2]: 30 mmol/L
- CHLORIDE [2]: 101.67 MEQ/L
- CHOLESTEROL [2]: 69.67 mg/dL
- CREATINE PHOSPHOKINASE [2]: 363.33 u/L
- CREATININE [2]: 0.25 mg/dL
- GLUCOSE [2]: 146.5 mg/dL
- LACTATE DEHYDROGENASE [2]: 219.67 u/L
- LIPASE [2]: 11.33 u/L
- PHOSPHORUS [2]: 10.08 mg/dL
- POTASSIUM [2]: 5.22 MEQ/L
- SODIUM [2]: 144.67 MEQ/L
- TOTAL BILIRUBIN [2]: 0.12 mg/dL
- TOTAL PROTEIN [2]: 6.33 G/DL
- URIC ACID [2]: 0.75 mg/dL
- ABSOLUTE BASOPHIL [3]: 0 CELLS/uL
- ABSOLUTE EOSINOPHIL [3]: 135 CELLS/uL
- ABSOLUTE LYMPHOCYTE [3]: 14816.33 CELLS/uL
- ABSOLUTE MONOCYTE [3]: 381.17 CELLS/uL
- ABSOLUTE SEGMENTED NEUTROPHIL [3]: 1317.5 CELLS/uL
- BASOPHIL [3]: 0%
- EOSINOPHIL [3]: 0.67%
- ERYTHROCYTE COUNT [3]: 5.65 x10E6/uL
- HEMATOCRIT [3]: 35.43%
- HEMOGLOBIN [3]: 14.12 G/DL
- LEUKOCYTE COUNT [3]: 16.65 x10E3/uL
- LYMPHOCYTE [3]: 89%
- MEAN CORPUSCULAR HEMOGLOBIN [3]: 25.02 pg
- MEAN CORPUSCULAR HEMOGLOBIN CONCENTRATION [3]: 39.85 G/DL
- MEAN CORPUSCULAR VOLUME [3]: 62.8 fL
- MONOCYTE [3]: 2.33%
- NEUTROPHIL [3]: 8%
- NUCLEATED RED BLOOD CELLS [3]: 0 /100WBC
- PLATELET COUNT [3]: 1185.67 x10E3/uL
- ALANINE AMINOTRANSFERASE [3]: 52.83 u/L
- ALKALINE PHOSPHATASE [3]: 423.5 u/L
- ASPARTATE AMINOTRANSFERASE [3]: 76.17 u/L
- BLOOD UREA NITROGEN [3]: 14.67 mg/dL
- CARBON DIOXIDE [3]: 31 mmol/L
- CHLORIDE [3]: 101.5 MEQ/L
- CHOLESTEROL [3]: 48 mg/dL
- CREATINE PHOSPHOKINASE [3]: 304.5 u/L
- CREATININE [3]: 0.2 mg/dL
- GLUCOSE [3]: 145.83 mg/dL
- LACTATE DEHYDROGENASE [3]: 103.67 u/L
- LIPASE [3]: 11.17 u/L
- PHOSPHORUS [3]: 11.08 mg/dL
- POTASSIUM [3]: 6.55 MEQ/L
- SODIUM [3]: 142.47 MEQ/L
- TOTAL BILIRUBIN [3]: 0.2 mg/dL
- TOTAL PROTEIN [3]: 5.9 G/DL
- URIC ACID [3]: 1.3 mg/dL

— ChEMBL document CHEMBL3885881, “DrugMatrix”
